Experimental data as given in patent publication US4338445A, “N-(Carbonylamino)-tetrahydropyridyl derivatives” (Canadian Patents & Development Limited, priority 1979, dated 1982).
“Also recorded” adds a separate entry of the source. Read-outs that look alike come from different tables or passages of the source.

Assays:
[1] = test system: phenylquinone-induced muscular writhing; assay: Analgesic activity, phenylquinone-writhing test; assay type: in vivo, Swiss albino mice; conditions: for Physiological activity: analgesic (in words): mouse, in vivo
Procedure: (§1) The compounds of formula (1) have anti-inflammatory, analgesic, hyperglycemic, and/or hypoglycemic properties. […] A. Winter, p.190-202, Int. Symposium on Non-Steroidal Anti-Inflammatory Drugs, Milan, 1964, Excerpta Medica Foundation, Amsterdam. […] J. Pharmac. Chemother. 32, 295 (1968). […] Chem. 3, 99 (1961) and by Barthelmai et al., in Klin. Wchschr. 40, 585 (1962).
(§2) Initially the activity of the compound tested on an animal was determined at a single dose. If the substance was active at this dose, it was subjected to limited repeat testing. If the presence of activity was confirmed by repetition of the testing, a dose response relation was constructed and the effective dose (ED50) determined. If toxicity was encountered with the initial dose, the dose was reduced until one was reached which was tolerated by the animals tested.
Substances were administered subcutaneously to five Swiss albino mice, weighing 18 to 22 grams, before determining their activity in the phenylquinone-writhing test (see Collier et al, cited above). The active ingredients were suspended in a solution of physiological saline and "Tween 80™" surfactant. A dose amounting to 10 milliliters of physiological saline solution and active ingredient per kilogram of bodyweight was administered to the mice according to the dosage as set out in Table 2. The test results are shown in Table 2, the compounds tested being compared to Aspirin™ and dextropropoxyphene™.

blood glucose = assay: Determination of blood glucose (hyperglycemic / hypoglycemic activity); assay type: in vivo, Wistar rats; conditions: for % change in blood-glucose concentrations, post-treatment 2 hours / % change in blood-glucose concentrations, post-treatment 4 hours / ED50: oral, fasted rats; for % change in blood-glucose concentrations, post-treatment 2 hours / % change in blood-glucose concentrations, post-treatment 4 hours: 100 mg/kg; for Physiological activity: hypoglycemic (in words) / Physiological activity: hyperglycemic (in words): rat, in vivo; for ED50: Rattus norvegicus, dose elevating blood glucose by 50 percent
Procedure: as §1, §2
Compounds were suspended in distilled water and were administered orally to overnight-fasted Wistar rats. Capillary blood samples were obtained from the tail at zero, two, and four hours post-treatment and the sera derived from these samples were analyzed for glucose by spectrophotometric determination of enzymatically produced NADH2 (reduced form of nicotinamide adenine dinucleotide), using the commercial reagent "Escalab G-15™" according to the method described by Holland et al and by Barthelmai et al, both cited above. The test results are shown in Tables 4 and 5, and the ED50 values shown in Table 4 were calculated as the dose of compound which elevated blood glucose levels by 50 percent.

[2] = test system: carrageenan-induced paw edema; assay: Anti-inflammatory activity, carrageenan-induced paw edema; set-up: species or system Sprague-Dawley rats; conditions: rat, in vivo
Procedure: as §1, §2
Substances were administered subcutaneously to six Sprague-Dawley rats, weighing 100-120 g. A suspension of 0.03% carageenan was injected under the plantar skin of a hind paw. The increase in volume of the inflamed paw was measured 3 and 5 hours after drug administration.

[3] = Mus musculus, sc, mice, 128 mg/kg, read-out: Response % inhibition
[4] = Mus musculus, sc, mice, read-out: Response % inhibition
[5] = Mus musculus, sc, mice, Litchfield and Wilcoxon, read-out: ED50
[6] = 2 hours, read-out: ED50, hyperglycemic activity, post-treatment 2 hours
[7] = 4 hours, read-out: ED50, hyperglycemic activity, post-treatment 4 hours

COc1ccc(C(=O)NN2CC=CCC2)cc1 [Compound A-77, N-(4-methoxyphenylcarbonylamino)-1,2,3,6-tetrahydropyridine]
inhibition in vivo at 128 mg/kg [1, 3]: 31.4% | Physiological activity: analgesic (in words) [1]: analgesic | % change in blood-glucose concentrations, post-treatment 2 hours (blood glucose; 2 hours): -69% | % change in blood-glucose concentrations, post-treatment 4 hours (blood glucose; 4 hours): -26% | Physiological activity: hypoglycemic (in words) (blood glucose): potent hypoglycemic activity

COC(=O)N1CC=C(C(=O)NN2CC=CCC2)CC1 [Compound A-49, N-[4-(1-methoxycarbonyl-1,2,3,6-tetrahydropyridyl)carbonylamino]-1,2,3,6-tetrahydropyridine]
inhibition in vivo at 64 mg/kg [1, 4]: 3% | inhibition in vivo at 128 mg/kg [1, 3]: 78% | inhibition in vivo at 256 mg/kg [1, 4]: 95% | Physiological activity: analgesic (in words) [1]: active analgesics; also recorded: analgesic | Physiological activity: anti-inflammatory (in words) [2]: anti-inflammatory

COC(=O)N1C=CC(C(=O)NN2CC=CCC2)=CC1 [Compound A-45, N-[4-(1-methoxycarbonyl-1,2-dihydropyridyl)carbonylamino]-1,2,3,6-tetrahydropyridine]
inhibition in vivo at 16 mg/kg [1, 4]: 61% | inhibition in vivo at 32 mg/kg [1, 4]: 61% | inhibition in vivo at 128 mg/kg [1, 3]: 97% | inhibition in vivo at 256 mg/kg [1, 4]: 95% | Physiological activity: analgesic (in words) [1]: active analgesics; also recorded: analgesic | Physiological activity: anti-inflammatory (in words) [2]: striking anti-inflammatory action, comparing favourably with the standard compound used

O=C(COc1ccccc1)NN1CC=CCC1 [Compound A-62, N-(phenoxymethylenecarbonylamino)-1,2,3,6-tetrahydropyridine]
inhibition in vivo at 25 mg/kg ([1]; Mus musculus, sc, mice, 25 mg/kg, read-out: Response % inhibition): 50% | ED50 [1, 5]: 25 mg/kg | Physiological activity: analgesic (in words) [1]: active analgesics; also recorded: analgesic | Physiological activity: anti-inflammatory (in words) [2]: striking anti-inflammatory action, comparing favourably with the standard compound used | ED50 (blood glucose; [6]): 41 mg/kg | ED50 (blood glucose; [7]): 53 mg/kg | Physiological activity: hyperglycemic (in words) (blood glucose): significant hyperglycemic activity; also recorded: hypergylcemic

O=C(NN1CC=CCC1)c1cccc[n+]1[O-] [Compound A-36, N-(2-pyridylcarbonylamino-1-oxide)-1,2,3,6-tetrahydropyridine]
inhibition in vivo at 128 mg/kg [1, 3]: 55.3% | Physiological activity: analgesic (in words) [1]: analgesic | Physiological activity: anti-inflammatory (in words) [2]: anti-inflammatory

CC(=O)Oc1ccccc1C(=O)O [Aspirin, reference compound]
ED50 ([1]; Mus musculus, sc): 52 mg/kg

Cc1ccc(C(=O)NN2CC=CCC2)cc1 [Compound A-78, N-(4-methylphenylcarbonylamino)-1,2,3,6-tetrahydropyridine]
inhibition in vivo at 64 mg/kg [1, 4]: 92.4% | Physiological activity: analgesic (in words) [1]: active analgesics; also recorded: analgesic | % change in blood-glucose concentrations, post-treatment 2 hours (blood glucose; 2 hours): -73% | % change in blood-glucose concentrations, post-treatment 4 hours (blood glucose; 4 hours): -41% | Physiological activity: hypoglycemic (in words) (blood glucose): potent hypoglycemic activity

O=C(NN1CC=CCC1)C1CCCCC1 [Compound A-63, N-(cyclohexylcarbonylamino)-1,2,3,6-tetrahydropyridine]
inhibition in vivo at 16.5 mg/kg ([1]; Mus musculus, sc, mice, 16.5 mg/kg, read-out: Response % inhibition): 50% | ED50 [1, 5]: 16.5 mg/kg | Physiological activity: analgesic (in words) [1]: active analgesics; also recorded: analgesic | Physiological activity: anti-inflammatory (in words) [2]: striking anti-inflammatory action, comparing favourably with the standard compound used | ED50 (blood glucose; [6]): 36.5 mg/kg | ED50 (blood glucose; [7]): 53 mg/kg | Physiological activity: hyperglycemic (in words) (blood glucose): significant hyperglycemic activity

O=C(NN1CC=CCC1)c1ccc(Cl)cc1 [Compound A-79, N-(4-chlorophenylcarbonylamino)-1,2,3,6-tetrahydropyridine]
inhibition in vivo at 64 mg/kg [1, 4]: 33.9% | Physiological activity: analgesic (in words) [1]: analgesic | % change in blood-glucose concentrations, post-treatment 4 hours (blood glucose; 4 hours): -26% | Physiological activity: hypoglycemic (in words) (blood glucose): potent hypoglycemic activity

N-(benzoylamino)-3(diethylaminocarbonyl)-1,2,3,6-tetrahydropyridine [Compound A-43]
Physiological activity: analgesic (in words) [1]: analgesic | Response % inhibition ([1]; s.c., mice, 128 mg/kg): 39.0%

CN1CC=C(C(=O)NN2CC=CCC2)CC1 [Compound A-50, N-[4-(1-methyl-1,2,3,6-tetrahydropyridyl)carbonylamino]-1,2,3,6-tetrahydropyridine]
inhibition in vivo at 256 mg/kg [1, 4]: 47% | Physiological activity: analgesic (in words) [1]: analgesic

O=C(NN1CC=CCC1)c1ccc(Cl)c(Cl)c1 [Compound A-80, N-(3,4-dichlorophenylcarbonylamino)-1,2,3,6-tetrahydropyridine]
inhibition in vivo at 128 mg/kg [1, 3]: 72% | Physiological activity: analgesic (in words) [1]: active analgesics; also recorded: analgesic | % change in blood-glucose concentrations, post-treatment 2 hours (blood glucose; 2 hours): -50% | % change in blood-glucose concentrations, post-treatment 4 hours (blood glucose; 4 hours): -50% | Physiological activity: hypoglycemic (in words) (blood glucose): potent hypoglycemic activity

O=C(Cc1cccnc1)NN1CC=CCC1 [Compound A-48, N-(3-picolylcarbonylamino)-1,2,3,6-tetrahydropyridine]
inhibition in vivo at 8 mg/kg ([1]; Mus musculus, sc, mice, 8 mg/kg, read-out: Response % inhibition): 28% | inhibition in vivo at 16 mg/kg [1, 4]: 45% | inhibition in vivo at 32 mg/kg [1, 4]: 94% | inhibition in vivo at 128 mg/kg [1, 3]: 100% | inhibition in vivo at 256 mg/kg [1, 4]: 100% | ED50 [1, 5]: 14.5 mg/kg | Physiological activity: analgesic (in words) [1]: active analgesics; also recorded: analgesic | Physiological activity: anti-inflammatory (in words) [2]: striking anti-inflammatory action, comparing favourably with the standard compound used

O=C(Cc1ccc2c(c1)OCO2)NN1CC=CCC1 [Compound A-70, N-(3,4-methylenedioxyphenylmethylenecarbonylamino)-1,2,3,6-tetrahydropyridine]
inhibition in vivo at 60 mg/kg ([1]; Mus musculus, sc, mice, 60 mg/kg, read-out: Response % inhibition): 80% | inhibition in vivo at 120 mg/kg [1, 4]: 91% | Physiological activity: analgesic (in words) [1]: active analgesics; also recorded: analgesic

CCC(=O)O[C@](Cc1ccccc1)(c1ccccc1)[C@H](C)CN(C)C [Dextropropoxyphene, reference compound]
ED50 ([1]; Mus musculus, sc): 56 mg/kg

O=C(CCc1ccccc1)NN1CC=CCC1 [Compound A-55, N-(phenylethylcarbonylamino)-1,2,3,6-tetrahydropyridine]
inhibition in vivo at 120 mg/kg [1, 4]: 42% | Physiological activity: analgesic (in words) [1]: analgesic | Physiological activity: anti-inflammatory (in words) [2]: striking anti-inflammatory action, comparing favourably with the standard compound used

CCCNC(=O)NS(=O)(=O)c1ccc(Cl)cc1 [Chlorpropamide, reference compound]
% change in blood-glucose concentrations, post-treatment 2 hours (blood glucose; 2 hours): > -40% | % change in blood-glucose concentrations, post-treatment 4 hours (blood glucose; 4 hours): > -40%
